Test results: ChEMBL document CHEMBL1122475, “Antidepressant activity of 5-aryl-2,3,5,6-tetrahydroimidazo[2,1-a]isoquinolin-5-ols” (1983)
Active and inactive are the calls of the source. No cut-off for these calls is given here.

Assays:
Mus musculus [1] = experiment: Dose at which 50% convulsions occurred in mice (ip); assay type: functional
Mus musculus [2] = experiment: Dose required to induce hyperactivity in mice (ip); not active at a dose of 25.0 mg/kg; assay type: functional, organism-based; design: dose 25 mg/kg
Mus musculus [3] = experiment: Dose required to induce hypersensitivity in mice (ip); not active at a dose of 25.0 mg/kg; assay type: functional, organism-based; design: dose 25 mg/kg
Mus musculus [4] = experiment: Minimal dose required to cause aggressiveness in mice after ip administration; not active at a dose of 25.0 mg/kg; assay type: functional, organism-based; design: dose 25 mg/kg
Mus musculus [5] = experiment: Minimal dose required to cause piloerection in mice after ip administration; not active at a dose of 25.0 mg/kg; assay type: functional, organism-based; design: dose 25 mg/kg
Mus musculus [6] = experiment: Minimal dose required to induce hyperaesthesia in mice (ip); assay type: functional
Mus musculus [7] = experiment: Minimal dose required to induce in mice exophthalmus (ip); assay type: functional
Mus musculus [8] = experiment: Minimal dose required to induce in mice straub tail (ip); assay type: functional
Mus musculus [9] = experiment: Inhibition of reserpine (5 mg/kg i.p.) induced hypothermia in mice 2 hr after i.p. administration.; assay type: functional; settings: ip
Mus musculus [10] = experiment: Lethal dose by i.p. administration.; assay type: functional; settings: ip
Mus musculus [11] = experiment: Inhibition of reserpine (5 mg/kg i.p.) induced hypothermia in mice 4 hr after i.p. administration.; assay type: functional; settings: ip
Felis catus = experiment: Compound tested to induce facilitation of monosynaptic spikes in spinal ventral root by stimulation of the dorsal root (DR-VR) after iv administration in cats; assay type: functional
Mus musculus [12] = experiment: Dose required to induce hyperactivity in mice (ip); assay type: functional
Mus musculus [13] = experiment: Dose required to induce hyperactivity in mice (ip); not active at a dose of 50.0 mg/kg; assay type: functional, organism-based; design: dose 50 mg/kg
Mus musculus [14] = experiment: Dose required to induce hypersensitivity in mice (ip); not active at a dose of 50.0 mg/kg; assay type: functional, organism-based; design: dose 50 mg/kg
Mus musculus [15] = experiment: Minimal dose required to cause aggressiveness in mice after ip administration; not active at a dose of 50.0 mg/kg; assay type: functional, organism-based; design: dose 50 mg/kg
Mus musculus [16] = experiment: Minimal dose required to cause piloerection in mice after ip administration; not active at a dose of 50.0 mg/kg; assay type: functional, organism-based; design: dose 50 mg/kg
Mus musculus [17] = experiment: Minimal dose required to induce hyperaesthesia in mice (ip); not active at a dose of 50.0 mg/kg; assay type: functional, organism-based; design: dose 50 mg/kg
Mus musculus [18] = experiment: Minimal dose required to induce in mice exophthalmus (ip); not active at a dose of 50.0 mg/kg; assay type: functional, organism-based; design: dose 50 mg/kg
Mus musculus [19] = experiment: Minimal dose required to induce in mice straub tail (ip); not active at a dose of 50.0 mg/kg; assay type: functional, organism-based; design: dose 50 mg/kg
Mus musculus [20] = experiment: Dose required to induce hypersensitivity in mice (ip); assay type: functional
Mus musculus [21] = experiment: Minimal dose required to cause piloerection in mice after ip administration; assay type: functional
Mus musculus [22] = experiment: Minimal dose required to induce hyperaesthesia in mice (ip); not active at a dose of 25.0 mg/kg; assay type: functional, organism-based; design: dose 25 mg/kg
Mus musculus [23] = experiment: Minimal dose required to induce in mice exophthalmus (ip); not active at a dose of 25.0 mg/kg; assay type: functional, organism-based; design: dose 25 mg/kg
Mus musculus [24] = experiment: Minimal dose required to induce in mice straub tail (ip); not active at a dose of 25.0 mg/kg; assay type: functional, organism-based; design: dose 25 mg/kg

Row | Compound | CD50 (Mus musculus [1]) [mg/kg] | MD (Mus musculus [5]) | MD (Mus musculus [6]) [mg/kg] | MD (Mus musculus [7]) [mg/kg] | MD (Mus musculus [8]) [mg/kg] | ED50 (Mus musculus [9]) [mg/kg] | LD50 (Mus musculus [10]) [mg/kg] | ED50 (Mus musculus [11]) [mg/kg] | ED50 (Mus musculus [13]) | MD (Mus musculus [15]) | ED50 (Mus musculus [20]) [mg/kg] | further results
1 | OC1(c2ccccc2Cl)Cc2ccccc2C2=NCCN21 (centres undefined) | 37.5 | inactive | 18.8 | 9.4 | 25 | 6.1 | 34.4 | 11.5 |  |  |  | ED50 (Mus musculus [2]): inactive; ED50 (Mus musculus [3]): inactive; MD (Mus musculus [4]): inactive
2 | OC1(c2ccc(Cl)cc2)Cc2ccccc2C2=NCCN21 (centres undefined) | 37.5 | inactive | 37.5 | 18.8 | 18.8 | 0.025 | 75 | 6.4 |  |  |  | Activity (Felis catus): >1 mg/kg; ED50 (Mus musculus [12]): 25 mg/kg; ED50 (Mus musculus [3]): inactive
3 | CN(C)CCCN1c2ccccc2CCc2ccccc21 [IMIPRAMINE] |  |  |  |  |  | 6.3 |  | 12.8 |  |  |  | 
4 | OC1(c2ccccc2F)Cc2ccccc2C2=NCCN21 (centres undefined) |  |  |  |  |  | 5.1 | 35.5 | > 11.5 |  |  |  | 
5 | OC1(c2ccc(Cl)cc2Cl)Cc2ccccc2C2=NCCN21 (centres undefined) | 75 |  |  |  |  | 5.4 | 81.3 | > 25.6 | inactive | inactive |  | Activity (Felis catus): >3 mg/kg; ED50 (Mus musculus [14]): inactive; MD (Mus musculus [16]): inactive; MD (Mus musculus [17]): inactive; MD (Mus musculus [18]): inactive; MD (Mus musculus [19]): inactive
6 | OC1(c2ccc(Cl)cc2)c2ccccc2C2=NCCN21 (centres undefined) [MAZINDOL] |  |  |  |  |  | 0.05 |  | 0.12 |  |  |  | 
7 | COc1ccc(C2(O)Cc3ccccc3C3=NCCN32)cc1 (centres undefined) | 37.5 |  | 37.5 | 18.8 | 18.8 | 8.4 | 138 | 25.6 | inactive | inactive | 50 | MD (Mus musculus [21]): 37.5 mg/kg
8 | OC1(Cc2ccccc2)Cc2ccccc2C2=NCCN21 (centres undefined) | 37.5 | inactive |  |  |  | 5.9 | 37.5 | > 25.6 |  |  | 25 | ED50 (Mus musculus [2]): inactive; MD (Mus musculus [4]): inactive; MD (Mus musculus [22]): inactive; MD (Mus musculus [23]): inactive; MD (Mus musculus [24]): inactive
9 | Cc1ccc(C2(O)Cc3ccccc3C3=NCCN32)cc1 (centres undefined) | 75 |  | 37.5 |  | 37.5 | > 25.6 | 84.1 | > 25.6 | inactive | inactive | 37.5 | MD (Mus musculus [16]): inactive; MD (Mus musculus [18]): inactive
